# Laboratory results taken from PMC3443238, “Synthesis and Antiangiogenic Activity of N-Alkylated Levamisole Derivatives” (PLoS ONE, 2012).
# Where a name gives a salt, the structure may show the parent alone.
# Key:
# [1] = tested on: human umbilical vein endothelial cells (HUVECs) in co-culture with normal human dermal fibroblasts (NHDF); assay: in vitro angiogenesis assay, HUVEC-NHDF co-culture, CD31 immunostaining; format: cell-based; conditions: for inhibition of angiogenesis compared with (S)-levamisole hydrochloride (1): Figure 5, Table 1
# Procedure: The antiangiogenic effects of the compounds were determined in a previously developed assay, designed to evaluate the growth and differentiation of human umbilical vein endothelial cells (HUVECs) in co-culture with normal human dermal fibroblasts (NHDF). […] The cluster morphology known from (S)-levamisole, was also observed for tetramisole (2) (Figure 5B and Table 1), p-bromolevamisole (3) (Figure 5C and Table 1), and N-methyllevamisoles (7a, b), with the latter mentioned showing a slightly more pronounced effect (Figure 5E and F, Figure 6 A–D, Table 1). […] Compound 4 (Figure 5D and Table 1), on the other hand, inhibited the capillary network formation to give small cords exclusively, which is reminiscent of the effect of suramin (5) (Figure 5N and Table 1), another well-known angiogenesis inhibitor [44], [51].
# Co-culture cell assays were performed according to a method described previously, [44]. Briefly, 10^3 NHDFs were cultured in each well of a 96-well microtiter plate in NHDF standard medium (100 μL, FGM-2 Bullet kit) at 37°C in an atmosphere containing 5% CO2. After 3 days the medium was removed and 10^3 HUVECs were seeded onto the NHDF in TFSM2 medium (135 μL). The samples of the individual compounds were prepared by weight and dissolved in a concentration of […] in DMSO, PBS, or Milli-Q water followed by pH adjustment, and sterile filtration through 0.22 μm filters. Medium, buffer controls or test samples of 15 µL were added to each well containing the HUVEC–NHDF co-culture and were incubated for 3 days. Experiments were repeated 2–4 times with identical results.
# HUVEC and fibroblasts were stained with a CD31 antibody according to the method previously described, [44]. Briefly, the cells were washed with PBS, fixed with ethanol, blocked with TTN buffer, incubated with mouse anti-human CD31 diluted 1∶250 in TTN buffer, washed in TTN buffer and incubated with alkaline phosphatase-conjugated goat anti-mouse IgG diluted 1∶1000 in TTN buffer. Bound antibody was subsequently visualised with BCIP/NBT and inspected in an Olympus IX70 microscope and photographed with an Olympus DP12 digital camera (Magnification: 40x). Image analysis was carried out using the program AnalySIS (Soft Imaging Systems, Münster, Germany).
# [2] = biological target: T1, human placenta alkaline phosphatase (HPAP) (Homo sapiens, UniProt P05187); assay: Alkaline phosphatase assay (p-nitrophenyl phosphate), human placenta enzyme; format: biochemical
# T1 construct: alkaline phosphatase (0.01 U/mL) from human placenta or bovine kidneys; from tissue; host or cells: human placenta
# T1 sequence (P05187 23-506 limits assumed): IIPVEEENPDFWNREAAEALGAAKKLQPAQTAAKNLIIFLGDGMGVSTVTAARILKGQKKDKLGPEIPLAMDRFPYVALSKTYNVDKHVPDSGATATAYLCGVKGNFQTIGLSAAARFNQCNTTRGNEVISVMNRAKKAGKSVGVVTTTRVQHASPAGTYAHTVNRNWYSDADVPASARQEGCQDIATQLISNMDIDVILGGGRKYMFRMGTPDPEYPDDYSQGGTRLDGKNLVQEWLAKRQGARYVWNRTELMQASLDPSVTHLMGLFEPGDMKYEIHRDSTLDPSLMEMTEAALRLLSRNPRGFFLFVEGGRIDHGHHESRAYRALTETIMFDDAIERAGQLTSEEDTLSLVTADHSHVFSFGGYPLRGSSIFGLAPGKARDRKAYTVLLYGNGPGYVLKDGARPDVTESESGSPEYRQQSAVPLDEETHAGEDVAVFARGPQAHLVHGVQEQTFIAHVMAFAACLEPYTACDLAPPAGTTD
# Procedure: (§1) The levamisole derivatives were diluted to 2.5, 5 and 10 mM in DMSO. Samples (10 µL) and 90 µL solution of alkaline phosphatase (0.01 U/mL) from human placenta or bovine kidneys diluted in substrate buffer were added to a 96-well microtiter plate and incubated for 35 minutes at room temperature. Hereafter, 100 µL p-nitrophenyl phosphate (2 mg/mL) were added, and the plate was read at 405 nm with background subtraction at 650 nm on a Versamax Elisa reader (Molecular Devices, Sunnyvale, CA, USA) after 24 and 35 min. Results were obtained as the mean of double determinations. The EC50 values were read from the curve at half maximal absorbance.
# [3] = biological target: T2, bovine kidney tissue non-specific alkaline phosphatase (TNAP) (Bos taurus, UniProt P09487); assay: Alkaline phosphatase assay (p-nitrophenyl phosphate), bovine kidney enzyme; format: biochemical
# T2 construct: alkaline phosphatase (0.01 U/mL) from human placenta or bovine kidneys; from tissue; host or cells: bovine kidneys
# T2 sequence (P09487 18-499 limits assumed): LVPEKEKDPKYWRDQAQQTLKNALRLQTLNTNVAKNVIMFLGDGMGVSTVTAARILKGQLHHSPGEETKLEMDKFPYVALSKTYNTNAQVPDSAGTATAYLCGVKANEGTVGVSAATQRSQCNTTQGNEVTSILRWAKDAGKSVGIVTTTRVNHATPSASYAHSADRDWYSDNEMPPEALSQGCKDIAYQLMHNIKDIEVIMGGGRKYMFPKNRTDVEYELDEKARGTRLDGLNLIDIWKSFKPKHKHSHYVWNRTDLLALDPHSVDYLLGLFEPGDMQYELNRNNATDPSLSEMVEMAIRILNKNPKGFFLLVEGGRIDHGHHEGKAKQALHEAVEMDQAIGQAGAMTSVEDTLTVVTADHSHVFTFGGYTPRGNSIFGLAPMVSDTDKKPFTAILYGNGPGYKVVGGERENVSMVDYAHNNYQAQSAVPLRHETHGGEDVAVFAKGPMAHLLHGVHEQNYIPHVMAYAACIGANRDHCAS
# Procedure: as §1
# sirtuin 1 (SIRT1) [4] = biological target: T3, sirtuin 1 (SIRT1) (Homo sapiens, UniProt Q96EB6); assay: SIRT1 inhibition assay (Fluor-de-Lys fluorogenic); format: biochemical; conditions: for inhibition of SIRT1 deacetylase activity: standard fluorogenic assay in vitro
# T3 construct: purchased Biomol BML-AK555
# T3 sequence (Q96EB6 whole entry): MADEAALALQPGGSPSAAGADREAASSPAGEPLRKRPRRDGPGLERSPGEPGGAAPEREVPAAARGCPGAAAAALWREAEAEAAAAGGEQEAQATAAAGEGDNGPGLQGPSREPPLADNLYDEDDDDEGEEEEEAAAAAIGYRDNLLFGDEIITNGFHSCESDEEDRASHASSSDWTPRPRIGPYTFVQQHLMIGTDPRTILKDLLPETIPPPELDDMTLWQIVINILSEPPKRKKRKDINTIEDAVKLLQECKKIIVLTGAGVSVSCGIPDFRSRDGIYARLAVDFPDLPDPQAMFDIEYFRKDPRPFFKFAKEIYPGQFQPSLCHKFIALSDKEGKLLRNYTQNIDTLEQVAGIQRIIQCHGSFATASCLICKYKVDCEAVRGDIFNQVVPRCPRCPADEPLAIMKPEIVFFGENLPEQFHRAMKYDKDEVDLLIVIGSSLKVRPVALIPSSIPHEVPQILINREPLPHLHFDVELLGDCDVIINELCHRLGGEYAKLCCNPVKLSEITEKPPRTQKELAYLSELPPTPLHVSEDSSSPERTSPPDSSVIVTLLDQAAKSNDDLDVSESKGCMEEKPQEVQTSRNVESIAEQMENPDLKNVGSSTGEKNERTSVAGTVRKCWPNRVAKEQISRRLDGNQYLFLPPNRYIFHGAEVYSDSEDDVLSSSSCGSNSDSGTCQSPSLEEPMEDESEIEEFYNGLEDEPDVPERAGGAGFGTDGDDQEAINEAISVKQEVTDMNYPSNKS
# Procedure: The assay was performed according to protocols provided by the supplier (Biomol, BML-AK555). Briefly, the dose–response experiments were performed in black low binding NUNC 96-well microtiter plates. The dilution series were prepared in Milli-Q water from 100 mM DMSO stock solutions. Fluor-de-Lys SIRT1 substrate (250 μM), NAD^+ ([…]), and SIRT1 (2 U/well) were incubated in SIRT assay buffer prepared as described in the Biomol product sheets [Tris/Cl (50 mM), NaCl (137 mM), KCl (2.7 mM), MgCl2 (1 mM), pH 8.0, 1 mg/mL bovine serum albumin] in the presence or absence of the appropriate dilution of compound 7a or suramin. After 1 hour at 37°C, nicotinamide (2 mM) and developer (50 μL, 2×) were added, and the assay development was allowed to proceed for 15–30 minutes at room temperature, before the plate was read using a Tecan plate reader with excitation at 360 nm and emission at 460 nm. Two individual assays were performed in duplicate.
# sirtuin 1 (SIRT1) [5] = biological target: T3, sirtuin 1 (SIRT1); assay: SIRT1 activation assay (Fluor-de-Lys fluorogenic); format: biochemical; conditions: Figure 7
# Procedure: The assay was essentially performed as described above for the deacetylase inhibition, but with different concentrations of enzyme and substrate [Fluor-de-Lys SIRT1 substrate (25 μM), NAD^+ (25 μM), SIRT1 (1 U/well)], and using resveratrol as positive control. Two individual assays were performed in duplicate.
# [6] = 1 mM, medium control 10.2, DMSO 8.4
# [7] = concentration not given, results not shown
structure (smiles),measurement,setting,value
"Nc1ccc(-c2cn3c(n2)SCC3)cc1 [Compound 4, 4-(2,3-dihydroimidazo-[2,1-b]thiazol-6-yl)aniline, reference compound]",Grading,[1]; 1 mM,+++ (cords with area <4%)
same,Morphology,[1]; 1 mM,Cords
same,Area % (percent of the area covered by HUVEC as observed by CD31 staining),[1]; [6],2.0%
same,inhibition of angiogenesis compared with (S)-levamisole hydrochloride (1),[1],more potent than (S)-levamisole hydrochloride
"CCCC[N+]1=C2SCCN2C[C@@H]1c1ccccc1 [Compound 10, (S)-N-(n-Butyl)-levamisole trifluoroacetate]",Area % (percent of the area covered by HUVEC as observed by CD31 staining),[1]; 0.3 mM,5.0%
same,Grading,[1]; 0.3 mM,+
same,Morphology,[1]; 0.3 mM,Mixed
"CC(C)[N+]1=C2SCCN2C[C@@H]1c1ccccc1 [Compound 9, (S)-N-Isopropyllevamisole trifluoroacetate]",IC50,[2],> 2 mM
same,Area % (percent of the area covered by HUVEC as observed by CD31 staining),[1]; 0.6 mM,2.6%
same,Grading,[1]; 0.6 mM,+
same,Morphology,[1]; 0.6 mM,Mixed
same,IC50,[3],> 2 mM
"c1ccc(C2CN3CCSC3=N2)cc1 (racemic) [Compound 2, (±)-levamisole, reference compound]",IC50,[2],1.2 mM
same,Grading,[1]; 1 mM,++ (clusters with area >4%)
same,Morphology,[1]; 1 mM,Clusters
same,Area % (percent of the area covered by HUVEC as observed by CD31 staining),[1]; [6],8.0%
same,inhibition of angiogenesis compared with (S)-levamisole hydrochloride (1),[1],same effect as the enantiomerically pure parent compound
same,IC50,[3],1 mM
"Cn1ccnc1 [N-methylimidazole, reference compound]",effect in the angiogenesis assay,[1]; 1 mM,no effect
same,effect in the angiogenesis assay,[1]; 10 mM,had an effect
"O=C(O)CNC(CO)(CO)CO [TRICINE, reference compound]",effect in the angiogenesis assay,[1]; [7],neither showed an effect
"c1ccc(C[N+]2=C3SCCN3C[C@@H]2c2ccccc2)cc1 [Compound 11b, N-benzyllevamisole trifluoroacetate]",IC50,[2],> 2 mM
same,Area % (percent of the area covered by HUVEC as observed by CD31 staining),[1]; 0.4 mM,4.0%
same,Grading,[1]; 0.4 mM,+
same,Morphology,[1]; 0.4 mM,Mixed
same,IC50,[3],> 2 mM
"C[N+]1=C2SCCN2C[C@@H]1c1ccccc1 [Compound 7b, N-methyllevamisole trifluoroacetate]",IC50,[2],> 2 mM
same,Grading,[1]; 1 mM,++++ (clusters with area <4%)
same,Morphology,[1]; 1 mM,Clusters
same,Area % (percent of the area covered by HUVEC as observed by CD31 staining),[1]; [6],3.3%
same,inhibition of angiogenesis compared with (S)-levamisole hydrochloride (1),[1],more potent than (S)-levamisole hydrochloride
same,IC50,[3],> 2 mM
same,inhibition of tissue non-specific alkaline phosphatase,[3]; at 2 mM or higher,no inhibition
"Cc1ccc(C(=O)Nc2ccc(S(=O)(=O)O)c3cc(S(=O)(=O)O)cc(S(=O)(=O)O)c23)cc1NC(=O)c1cccc(NC(=O)Nc2cccc(C(=O)Nc3cc(C(=O)Nc4ccc(S(=O)(=O)O)c5cc(S(=O)(=O)O)cc(S(=O)(=O)O)c45)ccc3C)c2)c1 [Compound 5, suramin, reference compound]",inhibition at 1 µM,sirtuin 1 (SIRT1) [4]; read-out: SIRT1 inhib. (1 μM),> 90%
same,inhibition of SIRT1 deacetylase activity,sirtuin 1 (SIRT1) [4],potently inhibited SIRT1
same,Morphology,[1]; 1 mM,Cords
same,Area % (percent of the area covered by HUVEC as observed by CD31 staining),[1]; [6],2.2%
same,IC50,[3],> 2 mM
"OCCN(CCO)C(CO)(CO)CO [BIS-TRIS, reference compound]",effect in the angiogenesis assay,[1]; 10 mM,Neither BIS-TRIS nor BICINE showed any effects
"O=S(=O)(O)CCN1CCN(CCO)CC1 [HEPES, reference compound]",effect in the angiogenesis assay,[1]; [7],neither showed an effect
"c1ccc(C[N+]2=C3SCCN3C[C@@H]2c2ccccc2)cc1 [Compound 11a, N-benzyllevamisole bromide]",Area % (percent of the area covered by HUVEC as observed by CD31 staining),[1]; 0.7 mM,2.8%
same,Grading,[1]; 0.7 mM,+
same,Morphology,[1]; 0.7 mM,Mixed
"CC[N+]1=C2SCCN2C[C@@H]1c1ccccc1 [Compound 8a, N-ethyllevamisole iodide]",IC50,[2],> 2 mM
same,Area % (percent of the area covered by HUVEC as observed by CD31 staining),[1]; 0.7 mM,5.2%
same,Grading,[1]; 0.7 mM,+
same,Morphology,[1]; 0.7 mM,Mixed
same,IC50,[3],> 2 mM
"Brc1ccc([C@H]2CN3CCSC3=N2)cc1 [Compound 3, (–)-p-bromolevamisole oxalate, reference compound]",IC50,[2],0.7 mM
same,Grading,[1]; 1 mM,++++ (clusters with area <4%)
same,Morphology,[1]; 1 mM,Clusters
same,Area % (percent of the area covered by HUVEC as observed by CD31 staining),[1]; [6],3.4%
same,inhibition of angiogenesis compared with (S)-levamisole hydrochloride (1),[1],more potent than (S)-levamisole hydrochloride
same,IC50,[3],> 2 mM
"NC(CO)(CO)CO [TRIZMA, reference compound]",effect in the angiogenesis assay,[1]; [7],neither showed an effect
"CC[N+]1=C2SCCN2C[C@@H]1c1ccccc1 [Compound 8b, N-ethyllevamisole trifluoroacetate]",Area % (percent of the area covered by HUVEC as observed by CD31 staining),[1]; 0.2 mM,5.4%
same,Grading,[1]; 0.2 mM,+
same,Morphology,[1]; 0.2 mM,Mixed
"c1ccc([C@H]2CN3CCSC3=[N+]2CC2CCCCC2)cc1 [Compound 12, (S)-N-Cyclohexylmethylenelevamisole]",IC50,[2],> 2 mM
same,Area % (percent of the area covered by HUVEC as observed by CD31 staining),[1]; 0.1 mM,3.7%
same,Grading,[1]; 0.1 mM,+
same,Morphology,[1]; 0.1 mM,Mixed
same,IC50,[3],> 2 mM
"C[N+]1=C2SCCN2C[C@@H]1c1ccccc1 [Compound 7a, N-methyllevamisole triflate]",IC50,[2],> 2 mM
same,SIRT1 inhib. (1 μM),sirtuin 1 (SIRT1) [4]; 1 μM,Not active^b
same,deacetylation compared to the control wells,"sirtuin 1 (SIRT1) [4]; at 10 μM and 100 μM, data not shown",elevated values of deacetylation
same,inhibition of SIRT1 deacetylase activity,sirtuin 1 (SIRT1) [4],no inhibitory effect
same,Grading,[1]; 1 mM,++++ (clusters with area <4%)
same,Morphology,[1]; 1 mM,Clusters
same,Area % (percent of the area covered by HUVEC as observed by CD31 staining),[1]; [6],2.8%
same,inhibition of angiogenesis compared with (S)-levamisole hydrochloride (1),[1],more potent than (S)-levamisole hydrochloride
same,concentration at which the cluster-inducing effect is already exerted (titration),"[1]; titration experiments, Figure 6F",30 µM
same,activation of SIRT1 compared to resveratrol,sirtuin 1 (SIRT1) [5],ruled out interaction with this regulatory enzyme
same,IC50,[3],0.1 mM
"O=C(O)CN(CCO)CCO [BICINE, reference compound]",effect in the angiogenesis assay,[1]; 10 mM,Neither BIS-TRIS nor BICINE showed any effects
